Assay results from patent publication US20220265582A1, “EFFECTS OF MESCALINE AND OF MESCALINE ANALOGS (SCALINES) TO ASSIST PSYCHOTHERAPY” (Universitätsspital Basel, priority 2021, published 2022).
Where two headings read alike, the source gives them in different places.

Key:
[1] = molecular target: 5-HT transporter (SERT) (Homo sapiens, UniProt P31645); conditions: cited from earlier work
[2] = tested on: healthy male subjects; conditions: cited from earlier work; for psychoactive or cardiostimulant properties of metabolites administered to humans: in vivo
[3] = LSD vs. MDMA (45); cited from earlier work
[4] = tested on: healthy subjects; conditions: 100 μg dose; cited from earlier work
[5] = tested on: healthy subjects; assay: Visual Analog Scales (VAS) of acute subjective effects, Clinical Study I; conditions: for duration of subjective effects (VAS any drug effect): mescaline 300 mg, psilocybin 20 mg, LSD 100 μg oral
[6] = tested on: healthy subjects; assay: Adverse effects, list of complaints (LC), Clinical Study I; format: in vivo, human; conditions: for mean total LC score: six human volunteers, oral mescaline 300 mg, psilocybin 20 mg, LSD 100 μg, LC 12 hours after administration
Description: Adverse effects (list of complaints): The list of complaints (LC) consists of 66 items offering a global score measuring physical and general discomfort (119). The LC list was administered 12 hours after administration of the drug with reference to complaints throughout the entire session.

[7] = molecular target: 5-HT2A receptor (Homo sapiens, UniProt P28223); conditions: FIG. 2 (62); cited from earlier work
[8] = tested on: healthy subjects; assay: 5-Dimensional Altered States of Consciousness (5D-ASC) scale, Clinical Study I; format: in vivo, human; conditions: 6 subjects
Description: 5-Dimensional Altered States of Consciousness (5D-ASC): The 5-dimensional Altered States of Consciousness (5D-ASC) Scale is a visual analog scale consisting of 94 items (117, 118). The instrument contains five main scales (FIG. 6A) and 11 newer subscales (FIG. 6B) assessing mood, anxiety, derealization, depersonalization, changes in perception, auditory alterations, and reduced vigilance. The scale is well-validated (118). The 5D-ASC scale was administered once at the end of the session and subjects were instructed to retrospectively rate peak alterations that have been experienced during the study session. Each item of the scale is scored on a 0-100 mm VAS. The attribution of the individual items to the subscales of the 5D-ASC was analyzed according to (117, 118) and as shown in FIGS. 6A-6B. The scale was be administered once at the end of each test session.

[9] = tested on: humans; conditions: cited from earlier work
[10] = molecular target: D2 receptors (Homo sapiens, UniProt P14416); conditions: FIG. 3; cited from earlier work
[11] = tested on: healthy subjects; assay: Autonomic measures (blood pressure, heart rate, body temperature), Clinical Study I; format: in vivo, human
Description: Autonomic measures: Blood pressure, heart rate, and body temperature were recorded at baseline and repeatedly throughout the session. Blood pressure (systolic and diastolic) and heart rate were measured with an automatic oscillometric device. Body temperature was measured with an ear thermometer.

[12] = tested on: rodent; conditions: rodent tests (49); cited from earlier work
[13] = tested on: healthy subjects; conditions: mescaline sulfate 500 mg, 12 subjects, MDE, 14 subjects, cited from earlier work
[14] = 500 mg mescaline hydrochloride orally
[15] = six healthy volunteers, doses used

Sequence of 5-HT transporter (SERT) (P31645 whole entry): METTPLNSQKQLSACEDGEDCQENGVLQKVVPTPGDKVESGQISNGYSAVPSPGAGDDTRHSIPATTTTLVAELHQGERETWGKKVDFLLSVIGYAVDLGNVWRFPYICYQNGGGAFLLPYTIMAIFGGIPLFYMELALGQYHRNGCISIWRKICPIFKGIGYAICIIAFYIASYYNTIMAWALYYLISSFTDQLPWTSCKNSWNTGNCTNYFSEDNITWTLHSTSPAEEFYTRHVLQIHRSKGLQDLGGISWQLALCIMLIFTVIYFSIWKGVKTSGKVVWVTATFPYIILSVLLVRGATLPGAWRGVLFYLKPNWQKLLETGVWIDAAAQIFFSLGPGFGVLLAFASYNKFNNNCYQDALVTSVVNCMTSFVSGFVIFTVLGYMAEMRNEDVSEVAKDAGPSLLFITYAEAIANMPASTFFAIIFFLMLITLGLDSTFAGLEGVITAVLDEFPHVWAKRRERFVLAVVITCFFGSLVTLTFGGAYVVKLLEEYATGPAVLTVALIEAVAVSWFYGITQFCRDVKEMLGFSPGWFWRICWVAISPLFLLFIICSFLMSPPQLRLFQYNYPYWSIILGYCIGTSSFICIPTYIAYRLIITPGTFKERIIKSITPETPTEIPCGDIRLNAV
Sequence of D2 receptors (P14416 whole entry): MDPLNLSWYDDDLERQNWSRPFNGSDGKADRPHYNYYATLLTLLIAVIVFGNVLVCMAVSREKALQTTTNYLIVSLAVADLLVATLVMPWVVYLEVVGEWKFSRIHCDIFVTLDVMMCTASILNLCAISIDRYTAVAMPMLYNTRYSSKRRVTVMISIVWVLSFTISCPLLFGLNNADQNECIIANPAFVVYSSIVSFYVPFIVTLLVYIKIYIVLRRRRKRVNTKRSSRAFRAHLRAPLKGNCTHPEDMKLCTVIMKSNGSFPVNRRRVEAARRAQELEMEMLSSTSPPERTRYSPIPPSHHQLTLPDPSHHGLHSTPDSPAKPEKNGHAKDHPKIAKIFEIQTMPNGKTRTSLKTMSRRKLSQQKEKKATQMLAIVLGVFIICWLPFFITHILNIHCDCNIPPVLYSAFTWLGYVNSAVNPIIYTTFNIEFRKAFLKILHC
Sequence of 5-HT2A receptor (P28223 whole entry): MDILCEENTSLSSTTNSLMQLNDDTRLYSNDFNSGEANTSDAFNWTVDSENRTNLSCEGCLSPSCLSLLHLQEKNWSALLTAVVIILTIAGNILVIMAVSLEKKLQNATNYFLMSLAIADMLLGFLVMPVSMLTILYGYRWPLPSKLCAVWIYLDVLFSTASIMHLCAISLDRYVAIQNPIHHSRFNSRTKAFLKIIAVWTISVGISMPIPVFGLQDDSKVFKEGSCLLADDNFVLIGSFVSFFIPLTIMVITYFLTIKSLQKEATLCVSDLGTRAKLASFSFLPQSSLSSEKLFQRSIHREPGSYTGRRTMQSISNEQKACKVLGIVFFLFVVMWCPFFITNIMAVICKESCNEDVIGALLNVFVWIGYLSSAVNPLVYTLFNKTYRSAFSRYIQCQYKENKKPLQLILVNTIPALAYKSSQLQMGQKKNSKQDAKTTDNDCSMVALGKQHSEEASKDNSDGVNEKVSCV

CN(C)CCc1c[nH]c2cccc(O)c12 [Psilocin, reference compound]
interaction with the SERT [1]: inhibits the 5-HT transporter (SERT)

COc1cc(CCNC(C)=O)cc(O)c1OC [N-acetyl-(3,4,dimethoxy-5-hydroxyphenylethalymine]
share excreted in urine as this species after mescaline [2, 14]: 5%

CNC(C)Cc1ccc2c(c1)OCO2 (stereo not drawn) [MDMA, 3,4-methylendioxymethamphetamine]
AED score [3]: 1.3
OB score [3]: 9.3
VR score [3]: 4.1

CCN(CC)C(=O)[C@@H]1C=C2c3cccc4[nH]cc(c34)C[C@H]2N(C)C1 [LSD, lysergic acid diethylamide, reference compound]
duration of effects [4]: 8 h
time of peak responses [4]: 3 h
AED score [3]: 26
OB score [3]: 43
VR score [3]: 50
area under the effect-time curve, visual and auditory perception (VAS) ([5]; doses used): greater
bad drug effect (VAS) peaks ([5]; doses used): peaks lower for LSD and mescaline compared with psilocybin
ego-dissolution (VAS) ([5]; doses used): mostly increased
stimulated (VAS) ([5]; doses used): greater stimulation than mescaline
synesthesia, "sounds influenced what I saw" (VAS) ([5]; doses used): highest ratings
visual and auditory perception change (VAS), ratings/peak ([5]; doses used): highest ratings
area under the effect over time curve (VAS any/good drug effect) [5, 15]: greater
duration of subjective effects (VAS any drug effect) ([5]; six healthy volunteers): lasted similarly long
mean total LC score [6]: 5.4
binding potency at the 5-HT2A receptor (rank) [7]: binds most potently
overall peak effects (total 3D-OAV scores) ([8]; LSD 100 μg, psilocybin 20 mg): equally strong overall peak effects

COc1cc(CCN)cc(OC)c1OC [mescaline, 3,4,5-trimethoxyphenethylamine]
interaction with the SERT [1]: do not interact with the SERT
area under the effect-time curve, visual and auditory perception (VAS) ([5]; doses used): similar
bad drug effect (VAS) peaks ([5]; doses used): peaks lower for LSD and mescaline compared with psilocybin
changed time perception (VAS) ([5]; doses used): trends toward lower changes
ego-dissolution (VAS) ([5]; doses used): lower ratings
nausea (VAS) ([5]; doses used): lowest nausea ratings
openness (VAS) ([5]; doses used): smallest peak effect but a longer lasting effect compared with psilocybin
synesthesia, "sounds influenced what I saw" (VAS) ([5]; doses used): lower ratings
visual and auditory perception change (VAS), ratings/peak ([5]; doses used): lower peak effects than both psilocybin and LSD
talkative (VAS) ([5]; first hours): longest effect
area under the effect over time curve (VAS any/good drug effect) [5, 15]: similar
peak effect (VAS any/good drug effect) [5, 15]: lower than those of psilocybin and LSD
time to peak of subjective effects (VAS any/good drug effect) [5, 15]: took longer to peak compared to those of psilocybin and LSD
duration of subjective effects (VAS any drug effect) ([5]; six healthy volunteers): lasted similarly long
dose to induce a full psychedelic experience ([9]; (51, 86)): about 300 mg
potency relative to LSD (times less potent) ([9]; (86)): 1000-3000 times
potency relative to psilocybin (times less potent) ([9]; (86)): around 30 times
subjective effect duration ([9]; moderate dose (86)): 10 to 12 h
duration of subjective effects [2, 14]: 12 to 14 h
onset of subjective effects [2, 14]: ≤ 30 min
share excreted in urine as this species after mescaline [2, 14]: 55-60%
time of peak subjective effects [2, 14]: 4 h
onset of subjective effects ([2]; 500 mg mescaline hydrochloride orally, listed as mescaline hydrochloride): approximately 30 min
delay of the peak subjective response compared with the plasma peak ([2]; 500 mg orally): about 2 hours
radioactivity administered excreted within 24 hours ([2]; 500 mg orally): 87%
radioactivity administered excreted within 48 h ([2]; 500 mg orally): 92%
half-life ([2]; mescaline hydrochloride 500 mg orally, radioactivity ingested as mescaline): approximately six
overall tolerability of acute administration ([6]; doses used): overall similar to that of LSD or psilocybin
mean total LC score [6]: 8.8
total alterations of consciousness (total 3D-OAV score) relative to LSD (100 μg) or psilocybin (20 mg) ([8]; mescaline 300 mg oral, peak responses rated 12 hours after administration): approximately 50%
affinity for D2 receptors [10]: no affinity
increases in blood pressure, heart rate and body temperature after mescaline ([11]; 6 subjects, mescaline 300 mg): tended to be attenuated compared with both psilocybin and LSD
thermogenic effects ([11]; Example 1): reduced thermogenic effects of mescaline compared to psilocybin
effects on heart rate ([11]; doses used, not statistically confirmed): tended to be lower than those of psilocybin
abuse-related rewarding effects [12]: no abuse-related rewarding effects
average APZ score AIA (anxious ego-dissolution) [13]: 7.1
average APZ score VUS (visionary restructuralization) [13]: 7.4
average APZ score OSE (oceanic boundlessness) ([13]; indirect comparison): 6.2

CN(C)CCc1c[nH]c2cccc(OP(=O)(O)O)c12 [psilocybin, reference compound]
nausea (VAS) ([5]; doses used): highest
mean total LC score [6]: 6.8
increase in blood pressure and body temperature compared with the other active substances ([11]; 6 subjects): more pronounced and shorter-lasting increase

COc1cc(CCNC(C)=O)cc(OC)c1OC [NAM, N-acetyl-mescaline]
share excreted in urine as this species after mescaline [2, 14]: 0.1%
psychoactive or cardiostimulant properties of metabolites administered to humans [2]: not to have psychoactive or cardiostimulant properties

COc1cc(CC(=O)O)cc(OC)c1OC [TMPA, 3,4,5-trimethoxyphenylacetic acid]
share excreted in urine as this species after mescaline [2, 14]: 27-30%
psychoactive or cardiostimulant properties of metabolites administered to humans [2]: not to have psychoactive or cardiostimulant properties
